Reference: patent US8791072B2 (priority 2011, dated 2014)
Values joined by “and” are separate entries in the source; they are usually repeats but may differ in a detail not shown here. Equal entries are not always repeated. Where no end group is shown, it is not given here.

What was measured:
[1] = system: neuromuscular junctions in orbicularis oculi muscle; details: rabbit, in vivo
superior rectus muscle = details: rabbit, in vivo
neuromuscular junction = details: in vivo; cited from earlier work
[2] = system: neuromuscular junctions in rabbit extraocular muscle; details: in vivo; cited from earlier work

Substance | combined total muscle neuromuscular junction density, orbicularis oculi muscle [1] | increase of combined total muscle neuromuscular junction density [1] [fold] | neuromuscular junction density, preseptal region [1] | neuromuscular junction density, pretarsal region [1] | preseptal neuromuscular junction density relative to control [1] | muscle force in response to electrical stimulation (superior rectus muscle) | return of normal neuromuscular junction activity (neuromuscular junction) [%] | change in number of neuromuscular junctions in the treated area [2] | neuromuscular junction density compared to saline control (in words) [1] | neuromuscular junction density, orbicularis oculi muscle [1]
botulinum toxin A | 5.9±0.43 /mm^2 | ~3 | 4.4±01 /mm^2 and 2.9±0.4 /mm^2 and 5.23±0.7 /mm^2 | 4.0±0.21 /mm^2 and 5.7±0.8 /mm^2 | between about two and three times greater than control | variable response, with some showing force equal to the saline-treated control muscles | 20 | doubling of neuromuscular junctions | – | –
corticotropin releasing factor (SEEPPISLDLTFHLLREVLEMARAEQLAQQAHSNRKLMEII; ends and bridges not checked; UniProt P06850 154-194, looked up) [CRF] | – | – | – | – | – | – | – | – | not significantly different from the density in the control orbicularis oculi muscles | 2.39±0.23 /mm^2
